From patent publication US7045298B2, “Method for identifying or screening agonist and antagonist to PPAR” (Tanabe Seiyaku Co., Ltd., priority 1997, dated 2006)

Experiments:
[1] = target: T1, ligand-dependent interaction between PPARγ and CBP (Homo sapiens, UniProt P37231); assay: Yeast two-hybrid detection of ligand-dependent interaction between PPARγ and CBP (β-galactosidase reporter); format: cell-based; conditions: for β-galactosidase activity (lacZ gene expression): yeast SFY526 containing both plasmids pGBT9-PPARγ2 and pGAD424-CBP, substance added at 10^−6M (FIG. 2A/3A), cultivation 4 to 5 hours; for concentration dependence of the increase in β-galactosidase activity: yeast containing both plasmids, varying concentrations of substance (FIG. 2B/3B)
T1 construct: expressed in transfected cells; host or cells: yeast cell strain SFY526 (Clontech), transformed with pGBT9-PPARγ2 and pGAD424-CBP
T1 sequence (P37231 182-505): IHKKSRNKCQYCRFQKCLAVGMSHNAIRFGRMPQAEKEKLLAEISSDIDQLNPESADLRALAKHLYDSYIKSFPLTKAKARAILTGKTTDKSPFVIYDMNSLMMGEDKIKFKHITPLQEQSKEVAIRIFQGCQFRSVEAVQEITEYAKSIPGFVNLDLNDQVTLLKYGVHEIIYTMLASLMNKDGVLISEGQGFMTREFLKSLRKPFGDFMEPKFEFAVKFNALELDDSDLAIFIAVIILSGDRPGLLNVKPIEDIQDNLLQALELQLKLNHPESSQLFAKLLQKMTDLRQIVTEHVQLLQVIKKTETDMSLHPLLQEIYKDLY
T1 sequence (P45481 1-464 partner): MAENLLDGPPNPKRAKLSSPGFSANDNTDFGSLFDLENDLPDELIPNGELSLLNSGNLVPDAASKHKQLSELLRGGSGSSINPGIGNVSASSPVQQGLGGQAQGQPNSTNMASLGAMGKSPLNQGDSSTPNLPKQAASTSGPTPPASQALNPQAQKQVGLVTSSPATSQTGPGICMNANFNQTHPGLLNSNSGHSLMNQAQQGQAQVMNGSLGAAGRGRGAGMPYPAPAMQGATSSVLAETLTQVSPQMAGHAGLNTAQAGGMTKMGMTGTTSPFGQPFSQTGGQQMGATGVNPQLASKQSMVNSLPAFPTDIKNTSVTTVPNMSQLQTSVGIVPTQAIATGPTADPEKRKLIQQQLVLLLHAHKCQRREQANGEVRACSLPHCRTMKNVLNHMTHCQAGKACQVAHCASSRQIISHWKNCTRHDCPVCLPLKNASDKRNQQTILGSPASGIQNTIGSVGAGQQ
Text: The 1574 base pair fragment containing PPARγ2 gene obtained in (1) above was cleaved at the XhoI recognition site designed at the terminus and the BamHI recognition site in the base sequence. The fragments obtained were inserted into the BamHI-SalI site of yeast expression vector pGBT9 (available from Clontech Co., vector for yeast two hybrid system) containing the gene of the DNA binding domain of transcription factor GAL4 (No. 1 to 147 amino acid residues of GAL4). As a result, plasmid pGBT9-PPARγ2 (FIG. 1A) for expressing a fused protein comprising the portion downstream of the No. 181 amino acid residue of human PPARγ2 (ligand binding domain) and the DNA binding domain of GAL4 was obtained. In FIG. 1A, GAL4 bd stands for a GAL4 DNA binding domain sequence, ^PADH1 stands for alcohol dehydrogenase gene promoter, ^TADH1 stands for an alcohol dehydrogenase gene terminator, Amp^r stands for an ampicillin resistant gene, ColE1 ori stands for a collicin E1 replication start point, and 2 μ ori stands for a 2 μ replication start point.
The 1411 base pair fragment containing CBP gene obtained in (1) above (N-terminal domain) was cleaved at the BamHI recognition site and BglII recognition site designed at the termini. The fragments obtained were inserted into the BamHI-BglII site of yeast expression vector pGAD424 (available from Clontech Co., vector for yeast two hybrid system) containing the gene of the transcriptional activation domain of GAL4 (No. 768 to 881 amino acid residues of GAL4). As a result, plasmid pGAD424-CBP (FIG. 1B) for expressing a fused protein comprising the portion of the No. 1 to 464 amino acid residues of mouse CBP (N-terminal domain) and the transcriptional activation domain of GAL4 was obtained. In FIG. 1B, GAL4 ad stands for GAL4 transcriptional activation domain sequence and others have the same meanings as in FIG. 1A.
Using yeast cell strain SFY526 (available from Clontech Co.), the fused protein expression plasmids pGBT9-PPARγ2 and pGAD424-CBP obtained in (2) and (3) above were introduced therein. The cell strain SFY526 (genotype was MATa, ura3-52, his3-200, ade2-101, lys2-801, trp1-901, leu2-3, 112, canr, gal4-542, gal80-538, URA3::GAL1-lacZ) had incorporated in the chromosome a fused gene of GAL1 and lacZ and is a cell strain having deletion mutation relative to GAL4 gene (Bartel et al., Bio Techniques, vol. 14, pp. 920–924, 1993). The transformation was performed by the lithium acetate method and incubated in a synthetic medium depleted of tryptophan and leucine which are selection markers for the respective plasmids to perform screening to obtain a transformant in which only one of the plasmids was introduced and a transformant in which the both plasmids were introduced.
The yeast transformant containing both of the plasmids pGBT9-PPARγ and pGAD424-CBP or the yeast transformant containing only one of the plasmids was cultivated in YPD medium (liquid medium). Upon cultivation, 15-deoxy-Δ^12,14-prostaglandin J2, which is a ligand of PPARγ2 in a living body, diluted with YPD medium was added (or not added). 15-deoxy-Δ^12,14-prostaglandin J2 (hereinafter abbreviated to as “15d-PGJ2”) used was commercially available (available from CAYMAN CHEMICALS, CO., U.S.A.). The cultivation was performed for 4 to 5 hours. After the cultivation, the yeast cells were recovered by centrifugation and β-galactosidase activity was measured. […]

[2] = test system: KK-Ay mouse; conditions: Japanese Provisional Patent Publications No. 56675/1989 and No. 167225/1990; cited from earlier work

Q: Which “β-galactosidase activity (lacZ gene expression)” value [1] does the source give for `CCCCC/C=C/C=C1/C(=O)C=C[C@@H]1C/C=C\CCCC(=O)O` [15d-PGJ2, 15-deoxy-Δ^12,14-prostaglandin J2] here?
A: an increase in β-galactosidase activity

Q: What about the “concentration dependence of the increase in β-galactosidase activity” value [1] of the same compound?
A: dependent on the concentration of 15d-PGJ2

Q: Which “identification as agonist for PPARγ” value ([1]; conclusion from ligand-dependent PPARγ-CBP interaction in yeast two-hybrid system) does the source give for `O=C1NC(=O)C(Cc2ccc3oc(Cc4ccc5ccccc5c4)nc3c2)S1` (stereo not drawn) [T-174, 5-[[2-(2-naphthalenylmethyl)-5-benzoxazolyl]methyl]-2,4-thiazolidinedione] here?
A: identified as an agonist acting as a ligand to PPARγ

Q: What about the “β-galactosidase activity (lacZ gene expression)” value [1] of the same compound?
A: an increase in β-galactosidase activity was observed only in the yeast containing both of the plasmids

Q: What about the “concentration dependence of the increase in β-galactosidase activity” value [1] of the same compound?
A: dependent on the concentration of T-174

Q: And the hypoglycemic effect [2]?
A: hypoglycemic effect
